Structures can show the parent of a compound that is named as a salt.

The target of this assay is T1, Acetylcholinesterase (Rattus norvegicus, UniProt P37136).
T1 construct: the S1 fraction of a male Wistar rat cerebral cortex homogenate was used as a cholinesterase source; from tissue; host or cells: male Wistar rat cerebral cortex homogenate, S1 fraction
T1 sequence (P37136 32-614): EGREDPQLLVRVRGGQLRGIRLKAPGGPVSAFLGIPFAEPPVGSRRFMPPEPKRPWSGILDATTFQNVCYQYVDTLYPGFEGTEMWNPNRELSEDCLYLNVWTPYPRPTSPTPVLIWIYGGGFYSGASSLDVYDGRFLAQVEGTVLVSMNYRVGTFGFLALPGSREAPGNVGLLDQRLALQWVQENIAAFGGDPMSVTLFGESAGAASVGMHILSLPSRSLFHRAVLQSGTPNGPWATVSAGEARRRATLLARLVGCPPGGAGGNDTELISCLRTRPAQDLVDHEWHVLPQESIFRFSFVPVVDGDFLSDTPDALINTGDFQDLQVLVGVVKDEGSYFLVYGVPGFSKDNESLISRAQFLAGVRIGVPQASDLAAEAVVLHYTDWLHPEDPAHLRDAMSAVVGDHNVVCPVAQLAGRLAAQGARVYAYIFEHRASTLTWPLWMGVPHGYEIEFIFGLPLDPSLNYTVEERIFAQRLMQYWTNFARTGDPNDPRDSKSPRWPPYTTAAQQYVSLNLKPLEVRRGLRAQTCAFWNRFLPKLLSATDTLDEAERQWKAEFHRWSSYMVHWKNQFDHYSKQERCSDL
Description: Acetylcholinesterase inhibiting activity using (acetyl-[3H])-acetylcholine, S1 fraction of rat cerebral cortex homogenate. In kind it is biochemical, male Wistar rat. Particulars: rat cerebral cortex homogenate S1 fraction; 30 minutes of incubation; read-out: Acetylcholinesterase inhibiting activity IC50. The procedure:
The compounds according to the invention were examined for cholinesterase inhibiting activity using (acetyl-[^3 H])-acetylcholine. Thus, the S1 fraction of a male Wistar rat cerebral cortex homogenate was used as a cholinesterase source, and (acetyl-[^3 H])-acetylcholine (as substrate) and each test compound according to the invention were added and, after 30 minutes of incubation, the reaction was terminated. A toluene type scintillator was added, and the mixture was shaken, whereby the reaction product [^3 H]-acetic acid was transferred to the toluene layer. The cholinesterase activity was determined by counting said [^3 H]-acetic acid with a liquid scintillation counter.
The cholinesterase inhibiting activity of each test compound was expressed in terms of 50% inhibitory concentration (IC50).
In general, IC50 refers to the concentration that gives 50% inhibition. As to `CN(CCCCNC(=O)/C=C/c1cccc([N+](=O)[O-])c1)Cc1ccccc1` [Compound 14-1], the half-maximal inhibitory concentration (IC50) is 13000 nM.
As to `CCN(CCCCCNC(=O)/C=C/c1ccc(OC)c(OC)c1)Cc1ccccc1OC` [Compound 18-5], the half-maximal inhibitory concentration (IC50) was determined as 430 nM.
In the case of `CCN(CCCCCN(C(C)=O)C(=O)/C=C/c1ccc([N+](=O)[O-])c(O)c1)Cc1ccccc1` [Compound 16-9], the IC50 came out at 350 nM.
As to `CCN(CCCCCNC(=O)/C=C/c1cccc([N+](=O)[O-])c1)Cc1ccccc1` [Compound 14-13], the IC50 was 3000 nM.
With `CCN(CCCCCNC(=O)/C=C/c1ccc(OC)cc1)Cc1ccccc1` [Compound 14-18], the 50% inhibitory concentration (IC50) came to 16000 nM.
In the case of `CCN(CCCCCN1C(=O)c2ccc(C(=O)N(CC)CC)cc2C1=O)Cc1ccccc1` [Compound 12-9], the concentration for half-maximal inhibition (IC50) was found to be 980 nM.
`CCN(CCCCCN1C(=O)c2ccc([N+](=O)[O-])cc2C1=O)Cc1cccc(OC)c1` [Compound 2-26]: the half-inhibitory concentration (IC50) was 45 nM.
Consider `CCN(CCCCCN1C(=O)c2ccc(N)cc2C1=O)Cc1ccccc1` [Compound 10, 5-Amino-2-[5-(N-benzyl-N-ethyl)aminopentyl]-1H -isoindole-1,3(2H)-dione dihydrochloride], for which the 50% inhibitory concentration (IC50) is 1200 nM.
The figure for `CCN(CCCCCN(C(C)=O)C(=O)/C=C/c1cccc(NC(C)=O)c1)Cc1ccccc1` [Compound 21-1] is 1800 nM; for `CCN(CCCCCNC(=O)/C=C/c1ccc(S(C)(=O)=O)cc1)Cc1ccccc1` [Compound 14-22] it is 3200 nM.
As to `CCN(CCCCCN1C(=O)c2ccc(OC(C)=O)cc2C1=O)Cc1ccccc1` [Compound 12-5], the IC50 was determined as 2100 nM.
Next, `CCN(CCCCN1C(=O)c2ccc([N+](=O)[O-])cc2C1=O)Cc1ccccc1` [Compound 2-3]: 250 nM; `CC(=O)Nc1ccc2c(c1)C(=O)N(CCCCN(C)Cc1ccccc1)C2=O` [Compound 5-1]: 11000 nM; `CN(CCCCN1C(=O)c2ccc(NS(=O)(=O)Cc3ccccc3)cc2C1=O)Cc1ccccc1` [Compound 5-3]: 9200 nM.
For `CCN(CCCCCCN1C(=O)c2ccc([N+](=O)[O-])cc2C1=O)Cc1ccccc1` [Compound 2-14], the IC50 stood at 660 nM.
In the case of `CN(CCCCNC(=O)/C=C/c1ccc([N+](=O)[O-])cc1)Cc1ccccc1` [Compound 9, (E)-N-[4-(N-Methyl-N-benzyl)aminobutyl]-3-(4-nitrophenyl)-2-propenamide], the IC50 is 14000 nM.
On to `CCN(CCCCCN1C(=O)c2ccc(Cl)cc2C1=O)Cc1ccccc1` [Compound 12-7], for which the IC50 was 1300 nM.
With `CCN(CCCCCN1C(=O)c2ccc([N+](=O)[O-])cc2C1=O)Cc1ccc(C)cc1` [Compound 2-17], the IC50 was determined as 370 nM.
As for `CCN(CCCCCNC(=O)/C=C/c1ccc(O)cc1)Cc1ccccc1` [Compound 14-17], the IC50 turned out to be 13000 nM.
Regarding `CCN(CCCCCN(C(C)=O)C(=O)/C=C/c1ccc(C#N)cc1)Cc1ccccc1` [Compound 16-6], the IC50 was 460 nM.
`CCN(CCCCCNC(=O)/C=C/c1cccc(OC)c1)Cc1ccccc1` [Compound 14-19]: the IC50 came out at 9300 nM.
`CCN(CCCCCN1C(=O)c2ccc(NC(=O)c3ccccc3)cc2C1=O)Cc1ccccc1` [Compound 11-2]: the IC50 was 730 nM.
Next, `CCN(CCCCCNC(=O)/C=C/c1ccc(N)cc1)Cc1ccccc1` [Compound 20-3]: 10000 nM; `CCN(CCCCCN1C(=O)c2ccc(OC)cc2C1=O)Cc1ccccc1` [Compound 12-6]: 710 nM.
Consider `CCN(CCCCCNC(=O)/C=C/c1ccc([N+](=O)[O-])c(O)c1)Cc1ccccc1` [Compound 14-24], for which the IC50 amounted to 170 nM.
Take `CCN(CCCCCNC(=O)/C=C/c1ccc(NC(C)=O)cc1)Cc1ccccc1` [Compound 21-2]: the half-maximal inhibitory concentration (IC50) was found to be 5700 nM.
For the compound `CCN(CCCNC(=O)/C=C/c1ccc([N+](=O)[O-])cc1)Cc1ccccc1` [Compound 14-9], the IC50 is 11000 nM.
`CCN(CCCCCN(C(C)=O)C(=O)/C=C/c1cccc([N+](=O)[O-])c1)Cc1ccccc1` [Compound 16-4]: the IC50 stood at 530 nM.

(Values after US5025033A, “Alkylene diamines” (Takeda Chemical Industries, Ltd., priority 1988, dated 1991).)
